# Reference: publication PMC7288168, “Synthesis and Cytotoxic Activity of Chiral Sulfonamides Based on the 2-Azabicycloalkane Skeleton” (Molecules, 2020)
# Experiments:
# [1] = tested on: HUH7 cells; assay: Neutral red cell viability assay, HUH7; assay type: cell-based, human; conditions: for IC50: Homo sapiens, Huh-7, 24 h treatment, neutral red, read-out: LD50 HUH7 (HCC)
# Method: (§1) The human hepatocellular carcinoma (HCC) cell line HUH7 was purchased from ATCC (LGC standards GmbH, Wesel, Germany). The Austrian human HCC cell line AKH12 has been well characterized and was kindly provided by Prof. Bettina Grasl-Kraupp. HUH7 cells were cultured in Dulbecco’s modified Eagle’s medium (Thermo Fisher Scientific, Waltham, MA, USA) containing 10% heat-inactivated fetal bovine serum (FBS) (Sigma-Aldrich, St. Louis, MO, USA), 1% penicillin-streptomycin (10,000 U/mL) (Thermo Fisher Scientific, Waltham, MA, USA), and 1% minimum essential medium nonessential amino acids (100x) (Thermo Fisher Scientific, Waltham, MA, USA). AKH12 cells were cultured in RPMI1640 medium (Sigma-Aldrich, St. Louis, MO, USA) containing 10% heat-inactivated FBS. DAOY and D283Med (short D283) medulloblastoma (MB) cells were purchased from ATCC (LGC standards GmbH, Wesel, Germany). D425Med (short D425) and UW228-2 were provided by Thomas Ströbel from the Institute of Neurology Medical University of Vienna. The cells were cultured in Dulbecco’s modified Eagle’s medium (Sigma-Aldrich, St. Louis, MO, USA) containing 10% FBS (Sigma-Aldrich, St. Louis, MO, USA), 2% L-Glutamine (Sigma-Aldrich, St. Louis, MO, USA), and 0.2% Normocin (Sigma-Aldrich, St. Louis, MO, USA). U-251 MG (short U251) glioblastoma (GBM) cell line was purchased from Sigma-Aldrich and cultured in Dulbecco’s modified Eagle’s medium (Sigma-Aldrich, St. Louis, MO, USA) containing 10% FBS (Sigma-Aldrich, St. Louis, MO, USA), 2% L-Glutamine (Sigma-Aldrich, St. Louis, MO, USA), and 0.2% Normocin (Sigma-Aldrich, St. Louis, Missouri, USA). Human umbilical vein endothelial cells (HUVECs) were provided by Brigitte Winter from the Department of Surgery Medical University of Vienna and were grown in endothelial cell growth medium-2 BulletKitTM (Lonza, Basel, Switzerland) under standard tissue culture conditions. All cells were incubated at 37 °C in a 5% CO2 atmosphere and regularly checked for mycoplasma contamination.
# (§2) Cell viability was determined using a neutral red assay, as previously described. The cells were placed in 24-well plates and grown to reach 70–80% confluency prior to treatment. After treatment for 24 h, cells were incubated with neutral red at a concentration of 50 µg/mL in serum-free medium for 2 h at 37 °C. Cells were then washed 2x and incubated with 1% acetic acid in 70% ethanol. The dye concentration was measured photometrically at 562 nm. The percentage of survival was calculated considering DMSO-treated (indicated as 0 µM concentration) cells as 100% control.
# (§3) LD50 was defined as the amount of a toxic agent required to eliminate 50% of the cell population. The LD50 was calculated in each experiment from the respective dose–response curve. All experiments were performed in triplicate wells.
# [2] = tested on: AKH12 cells; assay: Neutral red cell viability assay, AKH12; assay type: cell-based, human; conditions: for reduction of cell viability, AKH12: 50 µM, 24 h, first screening; for IC50: Homo sapiens, 24 h treatment, neutral red, read-out: LD50 AKH12 (HCC)
# Method: as §1, §2, §3
# [3] = tested on: DAOY cells; assay: Neutral red cell viability assay, DAOY; assay type: cell-based, human; conditions: for reduction of cell viability, DAOY: 50 µM, 24 h, first screening; for IC50: Homo sapiens, Daoy, 24 h treatment, neutral red, read-out: LD50 DAOY (MB)
# Method: as §1, §2, §3
# [4] = tested on: UW228-2 cells; assay: Neutral red cell viability assay, UW228-2; assay type: cell-based, human; conditions: for reduction of cell viability, UW228-2: 50 µM, 24 h, first screening; for IC50: Homo sapiens, UW228-2, 24 h treatment, neutral red, read-out: LD50 UW228-2 (MB)
# Method: as §1, §2, §3
# [5] = tested on: D283 cells; assay: Neutral red cell viability assay, D283; assay type: cell-based, human; conditions: for reduction of cell viability, D283: 50 µM, 24 h, first screening; for IC50: Homo sapiens, D283, 24 h treatment, read-out: LD50 D283 (MB)
# Method: as §1, §2, §3
# [6] = tested on: U251 cells; assay: Neutral red cell viability assay, U251; assay type: cell-based, human; conditions: for decrease of cell viability, U251: 50 µM, 24 h, first screening; for IC50: Homo sapiens, U-251, 24 h treatment, neutral red, read-out: LD50 U251 (GBM)
# Method: as §1, §2, §3
# [7] = tested on: HUVEC cells; assay: Neutral red cell viability assay, HUVEC (Table 1); assay type: cell-based; conditions: Table 1, nonmalignant primary cells, 24 h
# Method: as §1, §2, §3
# [8] = tested on: D425 cells; assay: Cell viability assay (suspension cell line), MTT/CellTiter Blue, D425; assay type: cell-based, human; conditions: for reduction of cell viability, D425: 50 µM, 24 h, first screening; for IC50: Homo sapiens, read-out: LD50 D425 (MB); for IC50 / LD50 D425 (MB): 24 h treatment, suspension cell assay; for HUVEC/D425 LD50 Fold Change: ratio of LD50 HUVEC to LD50 D425; for D425 cell viability as compared to HUVEC cells: dose-response 24 h, Student's t-test, p ≤0.05 / p ≤0.01
# Method: as §1, §3
# (§4) One day before treatment, 2 × 10^4 of D425Med or HUVEC cells were seeded into 24-well plates and incubated at 37 °C in a humidified atmosphere containing 5% CO2.The cells were treated with different compounds for 24 h. A […] assay using the CellTiter Blue reagent (Promega, Fitchburg, Wisconsin, USA) was performed according to the manufacturer’s protocol. Experiments were performed in triplicate and repeated three times. The percentage of survival was calculated as the ratio using DMSO-treated (indicated as 0 µM concentration) cells as 100% control.
# [9] = tested on: HUVEC cells; assay: Cell viability assay MTT/CellTiter Blue, HUVEC (Table 2); assay type: cell-based; conditions: Table 2, nonmalignant primary cells, 24 h, assay as for D425
# Method: as §1, §3, §4
SMILES,IC50 [1] [µM],"reduction of cell viability, AKH12 [2]",IC50 [2] [µM],"reduction of cell viability, DAOY [3]",IC50 [3] [µM],"reduction of cell viability, UW228-2 [4]",IC50 [4] [µM],"reduction of cell viability, D283 [5]",IC50 [5] [µM],"decrease of cell viability, U251 [6]",IC50 [6] [µM],LD50 HUVEC [7] [µM],"reduction of cell viability, D425 [8]",IC50 [8] [µM],HUVEC/D425 LD50 Fold Change [8],LD50 HUVEC [9] [µM],D425 cell viability as compared to HUVEC cells [8],LD50 D425 (MB) [8] [µM],"reduction of cell viability, HUH7 ([1]; 50 µM, 24 h, first screening)"
CC(c1ccccc1)N1C2CCC(C2)C1CNS(=O)(=O)c1ccc(-c2ccccc2)cc1 (stereo not drawn) [Compound 10a],13.9 ± 1.02,reduced cell viability below LD50,15.5 ± 1.3,reduced cell viability,16 ± 1.12,reduced cell viability,28.8 ± 2.1,reduced cell viability,17.7 ± 1.09,more than 50%,13.5 ± 0.9,11.58 ± 1.11,reduced cell viability,16.7 ± 2.11,1.67,28 ± 1.86,–,–,–
"Cc1ccc(-c2ccc(S(=O)(=O)NCC3C4CCC(C4)N3C(C)c3ccccc3)cc2)cc1 [Compound 10b, 4-(4-Tolyl)-N-((2-((S)-1-phenylethyl)-(1S,3R,4R)-2-azabicyclo[2.2.1]heptane-3-yl)benzenesulfonamide]",21.3 ± 1.23,reduced cell viability below LD50,23.7 ± 1.27,–,–,–,–,–,31.3 ± 1.32,more than 50%,20.4 ± 1.58,12.88 ± 2.13,–,16.4 ± 2.34,1.76,28.9 ± 2.97,significantly reduced D425 cell viability as compared to HUVEC cells,–,–
"CC(c1ccccc1)N1C2CCC(C2)C1CNS(=O)(=O)c1ccc(-c2ccc(F)cc2)cc1 [Compound 10c, 4-(4-Fluorophenyl)-N-((2-((S)-1-phenylethyl)-(1S,3R,4R)-2-azabicyclo[2.2.1]heptane-3-yl)benzenesulfonamide]",17.3 ± 0.98,reduced cell viability below LD50,23.3 ± 2.1,reduced cell viability,16 ± 2.1,reduced cell viability,15.7 ± 1.32,reduced cell viability,27.2 ± 2.35,more than 50%,21.3 ± 1.01,13.8 ± 1.14,reduced cell viability,5.38,3.11,16.77 ± 0.71,significantly reduced D425 cell viability as compared to HUVEC cells,5.38 ± 0.77,–
"COc1ccc(-c2ccc(S(=O)(=O)NCC3C4CCC(C4)N3C(C)c3ccccc3)cc2)cc1 [Compound 10e, 4-(4-Metoxyphenyl)-N-((2-((S)-1-phenylethyl)-(1S,3R,4R)-2-azabicyclo[2.2.1]heptane-3-yl)benzenesulfonamide]",16.3 ± 0.69,reduced cell viability below LD50,32 ± 2.21,reduced cell viability,15.5 ± 1.62,reduced cell viability,26.7 ± 1.52,reduced cell viability,15.6 ± 0.59,more than 50%,16 ± 2,9.58 ± 1.88,reduced cell viability,11 ± 0.47,1.05,11.54 ± 2.8,significantly reduced D425 cell viability as compared to HUVEC cells,–,–
"CC(c1ccccc1)N1C2CCC(C2)C1CNS(=O)(=O)c1ccc(C(F)(F)F)cc1 [Compound 10f, 4-Trifluoromethyl-N-((2-((S)-1-phenylethyl)-(1S,3R,4R)-2-azabicyclo[2.2.1]heptane-3-yl)benzenesulfonamide]",24.6 ± 1.54,reduced cell viability below LD50,24.7 ± 1.98,reduced cell viability,15.8 ± 1.09,reduced cell viability,28 ± 2.09,reduced cell viability,18.8 ± 1.22,more than 50%,32.7 ± 1.32,17.26 ± 2.33,reduced cell viability,20.2 ± 0.79,1.14,23.15 ± 2.21,–,–,–
"CC(c1ccccc1)N1C2CCC(C2)C1CNS(=O)(=O)c1cc(C(F)(F)F)cc(C(F)(F)F)c1 [Compound 10g, 3,5-Bis(trifluoromethyl)-N-((2-((S)-1-phenylethyl)-(1S,3R,4R)-2-azabicyclo[2.2.1]heptane-3-yl)benzenesulfonamide]",11.7 ± 1.53,reduced cell viability below LD50,10.2 ± 1.09,reduced cell viability,19.2 ± 1.42,reduced cell viability,12 ± 0.99,reduced cell viability,16 ± 1,more than 50%,11.8 ± 1.58,10.77 ± 0.93,reduced cell viability,6.61,2.66,17.62 ± 2.98,significantly reduced D425 cell viability as compared to HUVEC cells,6.61 ± 1.52,–
"CC(c1ccccc1)N1CC(NS(=O)(=O)c2ccc(C(F)(F)F)cc2)C2CCC1C2 [Compound 11f, 4-Trifluoromethyl-N-((2-((S)-1-phenylethyl)-(1S,4S,5R)-2-azabicyclo[3.2.1]octan-4-yl)benzenesulfonamide]",42.7 ± 1.98,–,–,reduced cell viability,17.3 ± 0.99,reduced cell viability,31.4 ± 2.12,reduced cell viability,29.9 ± 1.5,more than 50%,31.5 ± 2,22.28 ± 1.45,reduced cell viability,32 ± 1.37,0.98,31.52 ± 1.16,–,–,more than 50%
